# In US7951577B2, “Liquid crystals with reduced toxicity and applications thereof” (Wisconsin Alumni Research Foundation, priority 2003, dated 2011):
# Entries after “also recorded” stand apart in the source; their conditions may differ. Read-outs that look alike come from different tables or passages of the source.
# Key:
# [1] = tested on: SV-40 human corneal epithelial cells (HCEC); test: TRANSWELL assay, prolonged (24 hour) exposure to liquid crystal, Calcein-AM readout; type: cell-based; conditions: 50 μL liquid crystal in upper chamber, confluent and sub-confluent SV-40 HCEC
# Method: FIGS. 5A and 5B present the results of additional experiments to evaluate the toxicity of two different liquid crystals, 5CB and TL-205, following prolonged exposure to cells. For these experiments, TRANSWELL assays were carried out in which cell cultures were plated onto membranes in a TRANSWELL plate such that they were fed from below by liquid media while in continual contact with the liquid crystal, which was directly overlaid on the cells themselves. Briefly, SV-40 human corneal epithelial cells (HCEC) were grown in SHEM+10% fetal bovine serum. Cells were removed from T-75 tissue culture plates via trypsinization, and counted using a hemacytometer. Cells were plated onto TRANSWELL membranes (3 μm pore size, Corning, Inc., Corning, N.Y.) that allowed them to remain in contact with the liquid crystal as well as with the growth medium for 24 hours. Cells were plated at a concentration of 20,000 cells/well and allowed to grow. Some cells were tested at a density of confluence, approximately 45,000 cells (FIG. 5A), while another set was tested at a density of sub-confluence, approximately 30,000 cells/well (FIG. 5B). […] Calcein-AM was added to each well, and the cell fluorescence was measured to assess cell number. Fluorescence was read using a SYNERGY HT plate reader (Bio-Tek, Instruments, Inc., Winooksi, Vt.).
# [2] = tested on: SV-40 transformed human corneal epithelial cells (HCEC); type: cell-based; conditions: SV-40 HCEC, 4 hours under liquid crystal
# [3] = tested on: HeLa cells; test: Effects of liquid crystals on HeLa cells (morphology and viability); conditions: DSCG in water; 30% (w/v) A3 in H2O; 21% (w/v) C14AO in H2O with 3% C10OH
# Method: (§1) HeLa mammalian cell line (from human cervical cancer cells) were grown in poly-L-lysine (MW 30,000 to 70,000)-treated coverslips in a 12-well plate in MEM medium supplemented with 10% fetal bovine serum. HeLa cells were grown in tissue culture plates until the cells reached a confluency of 90 to 95% within 24 hrs and were maintained at 37° C. with 5% CO2.
# (§2) After incubation for less than one day, the DMEM was removed, the cells washed with PBS, 250 μl of the liquid crystal solution was overlaid.
# (§3) The overlaid cultures were incubated at 37° C. for 4 hours, at which time the liquid crystals were removed, the cells were washed with PBS, and 1 mL of medium DMEM was added back to the cells. The cells were then incubated in the medium at 37° C. for an additional 4 days and then evaluated for morphology and viability.
# [4] = tested on: vesicular stomatitis virus (VSV); type: cell-based; conditions: 2×10^7 pfu VSV, room temperature, 30 minutes, 1 hour or 4 hours
# [5] = tested on: vesicular stomatitis virus (VSV); type: cell-based; conditions: 1.5×10^7 pfu VSV, 1 hour at 37° C., supernatant titrated after 2 days
# [6] = tested on: Human IgG; test: Test of antibody binding in lyotropic liquid crystals (FITC anti-Human IgG to immobilized Human IgG); conditions: 200 nM FITC anti-Human IgG in liquid crystal (10% DSCG), 4 hours, room temperature
# [7] = Viscosity of lyotropic liquid crystals; type: physicochemical; conditions: DSCG 9% wt, Triton 60% wt, Brij 50% wt, AMO 20% wt
# Method: Lyotropic liquid crystals were investigated for their biocompatibility and bio-inertness based on the following three criteria: (1) viscosity; (2) observed birefringence of the liquid crystal; and (3) protein binding activity when proteins are dissolved in the lyotropic liquid crystals. The stability of protein structure in the lyotropic liquid crystals is implicitly tested based on the evaluation of criterion (3). The binding activity of antibodies in the liquid crystal was tested by covalent attachment of an antibody to a solid surface and measurement of the binding of a fluorescently labeled antibody to the immobilized antibody.
# [8] = pH of DSCG in water; type: physicochemical
# [9] = tested on: HeLa cells
# Method: as §1, §2, §3
Molecule,VSV infectivity after incubation of virus with liquid crystal [4],VSV growth after inoculation of HeLa cells in the presence of liquid crystal [5],antibody binding activity in the lyotropic liquid crystal (in words) [6],Viscosity [7],further results
"CCCCCc1ccc(-c2ccc(C#N)cc2)cc1 [5CB, 4-cyano-4′-pentylbiphenyl]",–,–,–,–,cell viability after prolonged exposure [1]: appears to kill cells; toxicity to cells (in words) [2]: toxic
COCCOCCOCCOCc1c(C)c(COCCOCCOCCOC)c(C)c(COCCOCCOCCOC)c1C [A3],no growth of VSV was observed,no growth of VSV was observed,–,–,appearance of HeLa cells during contact with liquid crystal [3]: cell membranes started to show a rough appearance (blebbing) and the nuclei condensed
"CCCCCCCCCCCCCC[N+](C)(C)[O-] [AMO, tetradecyldimethylamineoxide]",–,–,preserve specific antibody binding activity,50-200 cp,–
"O=C(O)c1cc(=O)c2c(OCC(O)COc3cccc4oc(C(=O)O)cc(=O)c34)cccc2o1 [DSCG, disodium chromoglycate]",VSV is stable in the presence of DSCG; also recorded: the concentration of the virus had not changed significantly,VSV can infect cells in the presence of DSCG,FITC fluorescence was only found in the arrayed spots,0.5-30 cp,pH [8]: < 6; HeLa cells after liquid crystal removed and medium added back [9]: proliferated well after the medium was added; appearance of HeLa cells during contact with liquid crystal [9]: cells rounded up and detached from the surface
Laurate,–,–,interfered with antibody binding activities,1-100 cp,–
Triton,–,–,interfered with antibody binding activities,>100 cp,–
